US20040001845A1, “Cytotoxic T-cell epitopes of HIV-1 virus” (priority 2002, published 2004)

System: PBMC (HIV-1-specific CD8+ T cells) of subject AC-06
Assay: IFN-γ Elispot assay of HIV-1-specific CD8+ T cell responses in subject AC-06
Format: cell-based, human
[1] = subject AC-06, 0 months after infection
[2] = subject AC-06, 2 months after infection
[3] = subject AC-06, 6 months after infection
[4] = subject AC-06, 12 months after infection
[5] = subject AC-06, 18 months after infection
[6] = subject AC-06, 20 months after infection
[7] = subject AC-06, 24 months after infection
[8] = subject AC-06, 29.5 months after infection
[9] = subject AC-06, 34 months after infection

## RIRTWKSLVK [A3-RK10]
[1]
  magnitude of HIV-1-specific CD8+ T cell responses at the single epitope level: 0 SFC/Million PBMC
[2]
  magnitude of HIV-1-specific CD8+ T cell responses at the single epitope level: 0 SFC/Million PBMC
[3]
  magnitude of HIV-1-specific CD8+ T cell responses at the single epitope level: 0 SFC/Million PBMC
[4]
  magnitude of HIV-1-specific CD8+ T cell responses at the single epitope level: 0 SFC/Million PBMC
[5]
  magnitude of HIV-1-specific CD8+ T cell responses at the single epitope level: 0 SFC/Million PBMC
[6]
  magnitude of HIV-1-specific CD8+ T cell responses at the single epitope level: 180 SFC/Million PBMC
[7]
  magnitude of HIV-1-specific CD8+ T cell responses at the single epitope level: 270 SFC/Million PBMC
[8]
  magnitude of HIV-1-specific CD8+ T cell responses at the single epitope level: 1100 SFC/Million PBMC
[9]
  magnitude of HIV-1-specific CD8+ T cell responses at the single epitope level: 1600 SFC/Million PBMC

## SPRTLNAWV [B7-SV9]
[1]
  magnitude of HIV-1-specific CD8+ T cell responses at the single epitope level: 0 SFC/Million PBMC
[2]
  magnitude of HIV-1-specific CD8+ T cell responses at the single epitope level: 0 SFC/Million PBMC
[3]
  magnitude of HIV-1-specific CD8+ T cell responses at the single epitope level: 0 SFC/Million PBMC
[4]
  magnitude of HIV-1-specific CD8+ T cell responses at the single epitope level: 0 SFC/Million PBMC
[5]
  magnitude of HIV-1-specific CD8+ T cell responses at the single epitope level: 0 SFC/Million PBMC
[6]
  magnitude of HIV-1-specific CD8+ T cell responses at the single epitope level: 0 SFC/Million PBMC
[7]
  magnitude of HIV-1-specific CD8+ T cell responses at the single epitope level: 0 SFC/Million PBMC
[8]
  magnitude of HIV-1-specific CD8+ T cell responses at the single epitope level: 680 SFC/Million PBMC
[9]
  magnitude of HIV-1-specific CD8+ T cell responses at the single epitope level: 120 SFC/Million PBMC

## RLRDLLLIVTR [A3-RR11]
[1]
  magnitude of HIV-1-specific CD8+ T cell responses at the single epitope level: 0 SFC/Million PBMC
[2]
  magnitude of HIV-1-specific CD8+ T cell responses at the single epitope level: 0 SFC/Million PBMC
[3]
  magnitude of HIV-1-specific CD8+ T cell responses at the single epitope level: 0 SFC/Million PBMC
[4]
  magnitude of HIV-1-specific CD8+ T cell responses at the single epitope level: 0 SFC/Million PBMC
[5]
  magnitude of HIV-1-specific CD8+ T cell responses at the single epitope level: 0 SFC/Million PBMC
[6]
  magnitude of HIV-1-specific CD8+ T cell responses at the single epitope level: 0 SFC/Million PBMC
[7]
  magnitude of HIV-1-specific CD8+ T cell responses at the single epitope level: 260 SFC/Million PBMC
[8]
  magnitude of HIV-1-specific CD8+ T cell responses at the single epitope level: 230 SFC/Million PBMC
[9]
  magnitude of HIV-1-specific CD8+ T cell responses at the single epitope level: 320 SFC/Million PBMC

## HPRVSSEVHI [B7-HI10]
[1]
  magnitude of HIV-1-specific CD8+ T cell responses at the single epitope level: 0 SFC/Million PBMC
[2]
  magnitude of HIV-1-specific CD8+ T cell responses at the single epitope level: 0 SFC/Million PBMC
[3]
  magnitude of HIV-1-specific CD8+ T cell responses at the single epitope level: 0 SFC/Million PBMC
[4]
  magnitude of HIV-1-specific CD8+ T cell responses at the single epitope level: 0 SFC/Million PBMC
[5]
  magnitude of HIV-1-specific CD8+ T cell responses at the single epitope level: 0 SFC/Million PBMC
[6]
  magnitude of HIV-1-specific CD8+ T cell responses at the single epitope level: 500 SFC/Million PBMC
[7]
  magnitude of HIV-1-specific CD8+ T cell responses at the single epitope level: 880 SFC/Million PBMC
[8]
  magnitude of HIV-1-specific CD8+ T cell responses at the single epitope level: 1800 SFC/Million PBMC
[9]
  magnitude of HIV-1-specific CD8+ T cell responses at the single epitope level: 1800 SFC/Million PBMC

## KLVDFRELNK [A3-KK10]
[1]
  magnitude of HIV-1-specific CD8+ T cell responses at the single epitope level: 0 SFC/Million PBMC
[2]
  magnitude of HIV-1-specific CD8+ T cell responses at the single epitope level: 0 SFC/Million PBMC
[3]
  magnitude of HIV-1-specific CD8+ T cell responses at the single epitope level: 0 SFC/Million PBMC
[4]
  magnitude of HIV-1-specific CD8+ T cell responses at the single epitope level: 0 SFC/Million PBMC
[5]
  magnitude of HIV-1-specific CD8+ T cell responses at the single epitope level: 0 SFC/Million PBMC
[6]
  magnitude of HIV-1-specific CD8+ T cell responses at the single epitope level: 0 SFC/Million PBMC
[7]
  magnitude of HIV-1-specific CD8+ T cell responses at the single epitope level: 70 SFC/Million PBMC
[8]
  magnitude of HIV-1-specific CD8+ T cell responses at the single epitope level: 1200 SFC/Million PBMC
[9]
  magnitude of HIV-1-specific CD8+ T cell responses at the single epitope level: 1800 SFC/Million PBMC

## GIPHPAGLK [A3-GK9]
[1]
  magnitude of HIV-1-specific CD8+ T cell responses at the single epitope level: 0 SFC/Million PBMC
[2]
  magnitude of HIV-1-specific CD8+ T cell responses at the single epitope level: 0 SFC/Million PBMC
[3]
  magnitude of HIV-1-specific CD8+ T cell responses at the single epitope level: 0 SFC/Million PBMC
[4]
  magnitude of HIV-1-specific CD8+ T cell responses at the single epitope level: 0 SFC/Million PBMC
[5]
  magnitude of HIV-1-specific CD8+ T cell responses at the single epitope level: 0 SFC/Million PBMC
[6]
  magnitude of HIV-1-specific CD8+ T cell responses at the single epitope level: 0 SFC/Million PBMC
[7]
  magnitude of HIV-1-specific CD8+ T cell responses at the single epitope level: 0 SFC/Million PBMC
[8]
  magnitude of HIV-1-specific CD8+ T cell responses at the single epitope level: 240 SFC/Million PBMC
[9]
  magnitude of HIV-1-specific CD8+ T cell responses at the single epitope level: 1800 SFC/Million PBMC
